According to patent US9832992B1, “Microbicidal composition” (Dow Global Technologies LLC, priority 2013, dated 2017):
Read-outs that look alike come from different tables or passages of the source.

Columns and labels:
Assay type in all cases: cell-based
[1] = test system: Staphylococcus aureus ATCC #6538; experiment: MIC / synergy index test in 96 well microtiter plates, Gram positive bacteria
Protocol: (§1) Surfactants and biocides were evaluated for synergy by determining the synergy index (S.I.) of the combination. Synergy index was calculated based on minimum inhibitory concentrations (MIC) of two antimicrobial compounds (A and B) alone and in combinations. The tests organisms were Gram negative bacteria (Pseudomonas aeruginosa ATCC #15442), Gram positive bacteria (Staphylococcus aureus ATCC #6538), yeast (Candida albicans ATCC#10203) and mold (Aspergillus niger ATCC#16404). Contact time for the bacteria was 24 and 48 hours, yeast was 48 and 72 hrs, and 3 and 7 days for mold. The test was carried out in 96 well microtiter plates.
(§2) SI is calculated as follows: Ca/CA+Cb/CB=Synergy Index (“SI”)
(§3) Wherein: • CA=concentration of compound A in ppm, acting alone, which produced an end point (MIC of Compound A). • Ca=concentration of compound A in ppm, in the mixture, which produced an end point. • CB=concentration of compound B in ppm, acting alone, which produced an end point (MIC of Compound B). • Cb=concentration of compound B in ppm, in the mixture, which produced an end point. When the sum of Ca/CA and Cb/CB is greater than one, antagonism is indicated.

[2] = test system: Pseudomonas aeruginosa ATCC #15442; experiment: MIC / synergy index test in 96 well microtiter plates, Gram negative bacteria
Protocol: as §1, §2, §3

[3] = test system: Aspergillus niger ATCC#16404; experiment: MIC / synergy index test in 96 well microtiter plates, mold
Protocol: as §1, §2, §3

[4] = test system: Candida albicans ATCC#10203; experiment: MIC / synergy index test in 96 well microtiter plates, yeast
Protocol: as §1, §2, §3

CB (MIC of compound B alone) ([1]; B: BNPD; table with Surf. E; 24 hrs; Media: 1/10 TSB; Inoculum size: 1.808E+06 CFU/ml) [ppm] | MIC ([1]; Staphylococcus aureus, ATCC6538, 24 h; read-out: CB (MIC of compound B alone)) [µg/mL] | CB (MIC of compound B alone) ([2]; B: BNPD; table with Surf. D; 24 hrs; Media: 1/10 TSB; Inoculum size: 1.16E+08) [ppm] | CB (MIC of compound B alone) ([2]; B: BNPD; table with Surf. E; 24 hrs; Media: 1/10 TSB; Inoculum size: 5.727E+07 CFU/ml) [ppm] | MIC ([2]; Pseudomonas aeruginosa, ATCC15442, 24 h; read-out: CB (MIC of compound B alone)) [µg/mL] | MIC ([3]; Aspergillus niger, ATCC16404; read-out: CB (MIC of compound B alone)) [µg/mL] | CB (MIC of compound B alone) ([4]; B: BNPD; table with Surf. E; 48 hrs; Media: PDB; Inoculum size: 1.808E+06 CFU/ml) [ppm] | MIC ([4]; Candida albicans, ATCC10203, 48 h; read-out: CB (MIC of compound B alone)) [µg/mL] | Compound | CB: MIC of B alone ([1]; B: DAZOMET alone; 24 hrs; Media 1/10 TSB; inoculum 5.72E+05) [PPM AI] | MIC ([1]; Staphylococcus aureus, ATCC6538, 24 h, read-out: CB (MIC of compound B alone)) [µg/mL] | MIC ([2]; Pseudomonas aeruginosa, ATCC15442, 24 h, read-out: CB (MIC of compound B alone)) [µg/mL] | CB: MIC of B (DAZOMET) alone ([3]; A. niger ATCC #16404; 3rd day; Media: PDB; Inoculum size: 1.156E+06; table with A: Surf. E) [PPM AI] | CB: MIC of B (DAZOMET) alone ([3]; A. niger ATCC #16404; 3rd day; Media: PDB; Inoculum size: 1.56E+06; table with A: Surf. D) [PPM AI] | MIC ([3]; Aspergillus niger, ATCC16404, read-out: CB (MIC of compound B alone)) [µg/mL] | CB (MIC of compound B alone) ([4]; B: DAZOMET; table with Surf. D; 48 hrs; Media: PDB; Inoculum size: 5.72E+05) [ppm] | MIC ([4]; Candida albicans, ATCC10203, 48 h, read-out: CB (MIC of compound B alone)) [µg/mL]
20 | 20 | 10 | 10 | 10 | 1000 | 1000 | 1000 | O=[N+]([O-])C(Br)(CO)CO [BNPD, 2-bromo-2-nitropropane-1,3-diol] | – | – | – | – | – | – | – | –
– | – | – | – | – | – | – | – | CN1CSC(=S)N(C)C1 [DAZOMET, tetrahydro-3,5-dimethyl-2H-1,3,5-thiadiazine-2-thione] | 200 | 200 | 80 | 30 | 40 | 60 | 50 | 50
